# Assay results reported in patent US20140194353A1, “COMPOSITIONS AND METHODS FOR THE TREATMENT OF NERVOUS DISORDERS ASSOCIATED WITH DIABETES” (Joslin Diabetes Center, Inc., priority 2010, published 2014).
# Experiments:
# [1] = tested on: SREBP-2 and its downstream cholesterologenic genes in the hypothalamus; test: qPCR of Srebf2 and cholesterologenic genes in hypothalami of STZ-diabetic mice; format: in vivo, mouse
# Method: (§1) For STZ-induced diabetes and systemic insulin therapy experiments, 7-week-old C57Bl/6 mice were treated with a single intraperitoneal (i.p.) injection (200 μg/g body weight) of STZ (Sigma). After 2 days, the mice were separated into two groups. Half remained untreated, and the other half were treated with subcutaneous insulin pellets (LinShin, Toronto, Canada) for one week to control blood glucose levels. For phlorizin (PHZ) treatment, 8-week-old C57Bl/6 mice were treated with STZ. PHZ (Sigma) was dissolved in a solution containing 10% ethanol, 15% DMSO, and 75% saline and was injected subcutaneously (0.4 g/kg) twice daily for 10 days starting 8 days after the STZ injection. Control mice were injected with the same volume of vehicle.
# For qPCR, RNA was isolated using an RNeasy kit (Qiagen). As a template, 1 μg (for tissue) or 0.2 μg (for glia and neurons) of total RNA was reverse-transcribed in 50 μl using a High Capacity cDNA Reverse Transcription Kit (Applied Biosystems) according to the manufacturer's instructions. […] Analysis of gene expression was done in the ABI PRISM 7000 sequence detector with an initial denaturation at 95° C. for 10 minutes followed by 40 PCR cycles, each cycle consisting of 95° C. for 15 seconds and 60° C. for 1 minute, and SYBR Green fluorescence emissions were monitored after each cycle. For each gene, mRNA expression was calculated relative to Tbp (mouse) or ribosomal 18S (human) expression as an internal control.
# To determine whether hyperglycemia or insulin insufficiency was predominantly responsible for the above-observed suppression of cholesterol synthesis pathway in the diabetic mouse brain, we treated the STZ-induced diabetic mice with phlorizin (PHZ), a flavonoid which can decrease blood glucose levels by inhibition of renal glucose transport without restoring insulin secretion using the methods disclosed in Example 1. […] Control mice were injected with the same volume of vehicle. mRNA levels were then assessed by qPCR as disclosed in Example 1. […]
# STZ-diabetic mice [2] = test: Blood glucose levels in STZ-diabetic mice; format: in vivo, mouse
# Method: as §1
# To determine whether hyperglycemia or insulin insufficiency was predominantly responsible for the above-observed suppression of cholesterol synthesis pathway in the diabetic mouse brain, we treated the STZ-induced diabetic mice with phlorizin (PHZ), a flavonoid which can decrease blood glucose levels by inhibition of renal glucose transport without restoring insulin secretion using the methods disclosed in Example 1. Additionally, phlorizin (PHZ) treatment was performed using 8-week-old C57Bl/6 mice previously treated with STZ. […] Control mice were injected with the same volume of vehicle. mRNA levels were then assessed by qPCR as disclosed in Example 1. […]
# cultured neurons = test: Pharmacological inhibition of insulin signaling pathways, cholesterol synthetic gene expression; format: cell-based, mouse
# [3] = tested on: Pomc, Agrp, Npy expression; test: qPCR of neuropeptides regulating appetite in hypothalamus after insulin ICV injection; format: in vivo, mouse; conditions: STZ-diabetic mice
# Method: (§2) For qPCR, RNA was isolated using an RNeasy kit (Qiagen). As a template, 1 μg (for tissue) or 0.2 μg (for glia and neurons) of total RNA was reverse-transcribed in 50 μl using a High Capacity cDNA Reverse Transcription Kit (Applied Biosystems) according to the manufacturer's instructions. Three microliters of diluted (1/4) reverse transcription reaction was amplified with specific primers (300 nM each) in a 25 μl PCR with a SYBR Green PCR Master Mix (Applied Biosystems). Analysis of gene expression was done in the ABI PRISM 7000 sequence detector with an initial denaturation at 95° C. for 10 minutes followed by 40 PCR cycles, each cycle consisting of 95° C. for 15 seconds and 60° C. for 1 minute, and SYBR Green fluorescence emissions were monitored after each cycle. For each gene, mRNA expression was calculated relative to Tbp (mouse) or ribosomal 18S (human) expression as an internal control.
# To assess the effects of insulin, we directly administered insulin into the cerebral ventricles of STZ-induced diabetic mice by 3 injections of insulin into a catheter placed in the lateral ventricle. […] Food intake was measured immediately before the ICV injection. Four hours after the last injection, blood glucose levels were measured, and the hypothalami collected.
# STZ-diabetic mice [4] = test: Food intake after ICV injection in STZ-diabetic mice; format: in vivo, mouse; conditions: insulin ICV injection
# Source text: To assess the effects of insulin, we directly administered insulin into the cerebral ventricles of STZ-induced diabetic mice by 3 injections of insulin into a catheter placed in the lateral ventricle. Briefly, seven-week-old C57Bl/6 mice were placed in a stereotactic device under anesthesia, and a 26-gauge guide cannula (Plastics One Inc., Roanoke, Va.) was inserted into the right lateral cerebral ventricle (1.0 mm posterior, 1.0 mm lateral, and 2.0 mm ventral to the bregma). A dummy stylet cannula was inserted into each cannula until used. After a 1 week recovery, mice received a single i.p. injection of STZ to induce diabetes. Twelve days later, the mice received three ICV injections of insulin (3 mU in 2 μL) or the same volume of PBS (9 AM, 7 PM and 9 AM the following day) through an internal cannula using a Hamilton microsyringe. Food intake was measured immediately before the ICV injection. Four hours after the last injection, blood glucose levels were measured, and the hypothalami collected.
# [5] = tested on: primary mouse cultured cortical neurons and glia; test: Insulin stimulation of primary cultured cortical neurons and glia, qPCR of cholesterologenic genes; format: cell-based
# Method: as §2
# To dissect the cell type and factors regulating the changes in cholesterol biosynthesis, neuron and glial cells (astrocytes) were isolated and cultured from the cortices of 16-day-old C57Bl/6 mouse embryos and 1-day-old neonates, respectively. Briefly, the cerebral cortex was dissected from 0-1 day old for glia and day 16 embryonic C57Bl/6 mice under aseptic conditions. Large blood vessels were carefully removed under the microscope. […]
compound,measurement,setting,value
"O=C(CCc1ccc(O)cc1)c1c(O)cc(O)cc1O[C@@H]1O[C@H](CO)[C@@H](O)[C@H](O)[C@H]1O [PHZ, phlorizin]",suppression of SREBP-2 and its downstream genes in the hypothalamus,"[1]; PHZ 0.4 g/kg s.c. twice daily for 10 days, qPCR","did not, however, reverse suppression"
same,hyperglycemia (blood glucose),STZ-diabetic mice [2]; PHZ 0.4 g/kg s.c. twice daily for 10 days,efficiently normalized hyperglycemia
Cn1cc(C2=C(c3ccc(Cl)cc3Cl)C(=O)NC2=O)c2ccccc21 [SB216763],expression of cholesterol synthetic genes,"cultured neurons; GSK3 inhibitor treatment, mimicked insulin's effects",broad increase in expression of cholesterol synthetic genes
N#CC(=C(/N)Sc1ccccc1N)/C(C#N)=C(\N)Sc1ccccc1N [U0126],insulin's effect on Hmgcr induction,cultured neurons; inhibitor given prior to insulin stimulation,partially suppressed
insulin,changes in cholesterologenic genes in hypothalamus of diabetic mice,"[1]; subcutaneous insulin pellets for one week, qPCR",reversed
same,suppression of SREBP-2 pathway in the hypothalamus,"[1]; three ICV injections of insulin (3 mU in 2 μL), 4 hours after last injection",almost completely normalized
same,blood glucose levels,"STZ-diabetic mice [2]; three ICV injections of insulin (3 mU), 4 hours after last injection",did not affect blood glucose levels
same,"expression of neuropeptides involved in feeding behavior (Pomc, Agrp, Npy)",[3],partially normalized
same,hyperphagia induced by STZ diabetes (food intake),STZ-diabetic mice [4],partly reversed the hyperphagia
same,stimulation of expression of all cholesterologenic genes,"[5]; insulin 10-100 nM, 6 hours, qPCR",30 to 270%
same,cholesterol synthetic gene expression,"[5]; primary cultured glia and neurons, 18 days in vitro, insulin 6 h",induces cholesterol synthetic gene expression
